Experimental data: US20230056888A1, “COMPOSITIONS COMPRISING CYANIDIN-3-GALACTOSIDE FOR USE AS VASORELAXANT” (Evonik Operations GmbH, priority 2019, published 2023)
Entries after “also recorded” stand apart in the source; their conditions may differ.

Assays:
mice mesenteric arteries = assay: Vascular reactivity of phenylephrine-precontracted mice mesenteric arteries, alone or with selective inhibitors; assay type: cell-based; details: for vasorelaxation reached by single anthocyanin: dose-response curves 1-100 μg/mL; for direct vasorelaxant action of single anthocyanin, compared with Healthberry 865®: increasing doses 1-100 μg/mL; for vasorelaxant effect in presence of Akt inhibitor: Akt inh 1 μM; for vasorelaxant effect in presence of Akt inhibitor / vasorelaxant effect in presence of PI3K inhibitor LY294002: 1 h; for vasorelaxant effect in presence of L-NAME (eNOS inhibitor): L-NAME 300 μM, 30 min pre-treatment; for vasorelaxant effect in presence of PI3K inhibitor LY294002: LY294002 10 μM
[1] = tested on: reactive oxygen species (ROS) in mouse mesenteric arteries; assay: Total ROS production (DHE / DHR123) in mesenteric arteries stimulated with Angiotensin II; assay type: cell-based; details: 50 μg/mL, 1 hour pre-treatment, then Angiotensin II 15 minutes, confirmed by DHR123
Method: Dihydroethidium (DHE, Life Technologies) was used to evaluate production of reactive oxygen species (ROS) in mouse mesenteric arteries, as previously described. Briefly, vessels were incubated with 5 μM of DHE for 20 min and subsequently observed under a fluorescence microscope (Zeiss). Images were acquired by a digital camera system (Olympus Soft Imaging Solutions). […] After treatment, vessels were incubated with Krebs solution containing 5 μM DHR123 for 30 min at 37° C., and then washed two times with PBS prior to fluorescence measurement using a fluorescence microplate reader (TECAN infinite 200 Pro).
(§1) Vessels were pre-treated with single anthocyanins (50 μg/mL) for 1 hours and then stimulated with Angiotensin II for 15 minutes prior to the acquisition. […] Data are expressed as increase of chemiluminescence per minute.
(§2) Data are expressed as increase of chemiluminescence per minute. Statistical analysis were performed using One-way ANOVA followed Bonferroni post-hoc test.

NADPH oxidase = NADPH oxidase activity (lucigenin-enhanced chemiluminescence) in mesenteric arteries after Angiotensin II; assay type: cell-based, mice; details: for NADPH oxidase (NOX) activity after stimulation with Angiotensin II: single anthocyanins 50 μg/mL, smaller reduction than Healthberry 865®
Method: Vessels were homogenized in a buffer containing protease inhibitors (mmol/L: 20 monobasic potassium phosphate, 1 EGTA, 0.01 aprotinin, 0.01 leupeptin, 0.01 pepstatin, 0.5 phenylmethylsulfonyl fluoride, pH 7.0). Protein content was measured in an aliquot of the homogenate by Bradford method. In some experiments, cells and vessels were pre-incubated with pharmacological inhibitors before measurements. The reaction was started by the addition of NADPH (0.1 mmol/l) and lucigenin (5 μmol/l) to each well. The chemiluminescence was measured using Tecan Infinite Pro M200 multimode microplate at 37° C.
as §1, §2

[2] = tested on: nitric oxide production in mice mesenteric arteries; assay: Evaluation of NO production by DAF-FM in mesenteric arteries; assay type: cell-based; details: HB 50 μg/mL or 100 μg/mL; single anthocyanins 50 μg/mL; comparator acetylcholine 10^-6 M
Method: Production of NO was assessed as previously described (Carrizzo et al. 2016). Healthberry 865®-865 (100 μg/mL) or acetylcholine (10^-6 M) was administered to the mesenteric artery in the last 30 min of 4-amino-5-methylamino-2,7,-difluorofluorescein diacetate (DAF-FM) incubation, alone and after […] exposure to L-NAME (300 μmol/L, 30 min). Mesenteric segments were cut in 5-μm thick sections, observed under a fluorescence microscope, subsequently counterstained with haematoxylin and eosin and observed under a light microscope.
FIG. 2 D) show representative high-power micrographs of 10 μm sections of mice mesenteric arteries loaded for 2 h with […] (DAF-FM) reveal nitric oxide production after treatment with acetylcholine (Ach 10^-6 M) or HB (50 μg/mL) and after 30 min of pretreatment with L-NAME (300 μmol/L), counterstained with haematoxylin and eosin (HE). Scale bar, 50 μm. E) Semiquantitative analyses of immunoblots of mice mesenteric arteries treated with HB (100 μg/mL) alone, or HB plus Akt inhibitor or LY294002, columns are the mean±SEM of three independent experiments. Statistical analyses were performed using two-way ANOVA followed Bonferroni post-hoc test. *p<0.05; **p<0.01, ***p<0.001.
FIG. 7A-D show vascular response of phenylephrine-precontracted mice mesenteric arteries to increasing doses of a combination of anthocyanins mixed with a ratio 1:1. […]

Row | Compound | direct vasorelaxant action of single anthocyanin, compared with Healthberry 865® (mice mesenteric arteries) | Angiotensin II-induced ROS formation [1] | NADPH oxidase (NOX) activity after stimulation with Angiotensin II (NADPH oxidase) | further results
1 | OC[C@H]1O[C@@H](Oc2cc3c(O)cc(O)cc3[o+]c2-c2cc(O)c(O)c(O)c2)[C@H](O)[C@@H](O)[C@H]1O [DP3-gal, Delphinidin-3-galactoside] | none of the single anthocyanins was able to evoke a dose-dependent vasorelaxation comparable; also recorded: vasorelaxant effects |  |  | vasorelaxation reached by single anthocyanin (mice mesenteric arteries): about 32.5%
2 | COc1cc(-c2[o+]c3cc(O)cc(O)c3cc2O[C@@H]2O[C@H](CO)[C@@H](O)[C@H](O)[C@H]2O)cc(O)c1O [PT3-glu, Petunidin-3-glucoside] | none of the single anthocyanins was able to evoke a dose-dependent vasorelaxation comparable |  |  | 
3 | COc1cc(-c2[o+]c3cc(O)cc(O)c3cc2O[C@@H]2O[C@H](CO)[C@H](O)[C@H](O)[C@H]2O)cc(OC)c1O [MAL3-gal, Malvidin-3-galactoside] | none of the single anthocyanins was able to evoke a dose-dependent vasorelaxation comparable | able to reproduce the antioxidant action | able to reduce NOX activity | 
4 | Peonidin-3-galactoside [PEO3-gal] | none of the single anthocyanins was able to evoke a dose-dependent vasorelaxation comparable | able to reproduce the antioxidant action | able to reduce NOX activity | 
5 | COc1cc(-c2[o+]c3cc(O)cc(O)c3cc2O[C@@H]2O[C@H](CO)[C@@H](O)[C@H](O)[C@H]2O)cc(OC)c1O [MAL3-glu, Malvidin-3-glucoside] | none of the single anthocyanins was able to evoke a dose-dependent vasorelaxation comparable | able to reproduce the antioxidant action | able to reduce NOX activity | rank of NOX activity reduction among single anthocyanins relative to Healthberry 865® (NADPH oxidase): most powerful anthocyanins
6 | OC[C@H]1O[C@@H](Oc2cc3c(O)cc(O)cc3[o+]c2-c2ccc(O)c(O)c2)[C@H](O)[C@@H](O)[C@@H]1O [C3-glu, Cyanidin-3-glucoside] | none of the single anthocyanins was able to evoke a dose-dependent vasorelaxation comparable | able to reproduce the antioxidant action | able to reduce NOX activity | rank of NOX activity reduction among single anthocyanins relative to Healthberry 865® (NADPH oxidase): most powerful anthocyanins
7 | OC[C@H]1OC(Oc2cc3c(O)cc(O)cc3[o+]c2-c2ccc(O)c(O)c2)[C@H](O)C(O)C1O (stereo partly shown) [C3-gal, Cyanidin-3-galactoside] | able to reproduce the direct vasorelaxant effect |  |  | vasorelaxant effect in presence of Dorsomorphin (AMPK inhibitor) (mice mesenteric arteries): completely lost its vasorelaxant capability; vasorelaxant effect in presence of Akt inhibitor (mice mesenteric arteries): did not inhibit; vasorelaxant effect in presence of L-NAME (eNOS inhibitor) (mice mesenteric arteries): significantly reduced; vasorelaxant effect in presence of PI3K inhibitor LY294002 (mice mesenteric arteries): did not inhibit; nitric oxide production (DAF-FM fluorescence) [2]: significant increase of nitric oxide production
8 | OC[C@H]1O[C@@H](Oc2cc3c(O)cc(O)cc3[o+]c2-c2cc(O)c(O)c(O)c2)[C@H](O[C@@H]2OC[C@@H](O)[C@H](O)[C@H]2O)[C@@H](O)[C@@H]1O [DP3-samb, Delphinidin-3-sambubioside] | able to reproduce the direct vasorelaxant effect |  |  | vasorelaxant effect in presence of Dorsomorphin (AMPK inhibitor) (mice mesenteric arteries): inhibited; vasorelaxant effect in presence of Akt inhibitor (mice mesenteric arteries): did not influence; vasorelaxant effect in presence of L-NAME (eNOS inhibitor) (mice mesenteric arteries): significantly reduced; vasorelaxant effect in presence of PI3K inhibitor LY294002 (mice mesenteric arteries): inhibited; nitric oxide production (DAF-FM fluorescence) [2]: significant increase of nitric oxide production
9 | C[C@@H]1O[C@@H](OC[C@H]2O[C@@H](Oc3cc4c(O)cc(O)cc4[o+]c3-c3ccc(O)c(O)c3)[C@H](O)[C@@H](O)[C@@H]2O)[C@H](O)[C@H](O)[C@H]1O [C3-rut, Cyanidin-3-rutinoside] | none of the single anthocyanins was able to evoke a dose-dependent vasorelaxation comparable; also recorded: vasorelaxant effects | able to reproduce the antioxidant action | able to reduce NOX activity | vasorelaxation reached by single anthocyanin (mice mesenteric arteries): ~36.5%
10 | Oc1cc(O)c2cc(O[C@H]3OC[C@H](O)[C@H](O)[C@H]3O)c(-c3cc(O)c(O)c(O)c3)[o+]c2c1 [DP3-ara, Delphinidin-3-arabinoside] | none of the single anthocyanins was able to evoke a dose-dependent vasorelaxation comparable; also recorded: vasorelaxant effects |  |  | 
11 | OC[C@H]1O[C@@H](Oc2cc3c(O)cc(O)cc3[o+]c2-c2cc(O)c(O)c(O)c2)[C@H](O)[C@@H](O)[C@@H]1O [DP3-glu, Delphinidin-3-glucoside] | none of the single anthocyanins was able to evoke a dose-dependent vasorelaxation comparable | able to reproduce the antioxidant action | able to reduce NOX activity | 
